# Test results published in publication PMC6468648, “The Flavonoid Metabolite 2,4,6-Trihydroxybenzoic Acid Is a CDK Inhibitor and an Anti-Proliferative Agent: A Potential Role in Cancer Prevention” (Cancers, 2019).
# Legend:
# Assay type in all cases: biochemical
# CDK2 = target: T1, CDK2 (Homo sapiens, UniProt P24941); experiment: in vitro kinase assay, […]-ATP ([…] ATP), H1 histone substrate, SDS-PAGE autoradiography
# T1 construct: recombinant CDK2/Cyclin A2 (SignalChem); with Cyclin A2
# CDK1 = target: T2, CDK1 (Homo sapiens, UniProt P06493); experiment: as above
# T2 construct: recombinant CDK1/Cyclin B1 (SignalChem); with Cyclin B1
# T2 sequence (P06493 whole entry): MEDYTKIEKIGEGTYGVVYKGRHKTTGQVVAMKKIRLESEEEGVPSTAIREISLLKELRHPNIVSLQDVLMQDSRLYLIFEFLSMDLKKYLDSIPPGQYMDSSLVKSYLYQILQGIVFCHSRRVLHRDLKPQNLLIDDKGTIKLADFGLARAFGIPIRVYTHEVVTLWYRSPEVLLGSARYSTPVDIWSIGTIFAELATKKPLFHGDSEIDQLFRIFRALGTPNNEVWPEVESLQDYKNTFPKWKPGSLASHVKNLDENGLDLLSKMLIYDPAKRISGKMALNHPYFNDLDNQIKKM
# T2 sequence (P14635 whole entry partner): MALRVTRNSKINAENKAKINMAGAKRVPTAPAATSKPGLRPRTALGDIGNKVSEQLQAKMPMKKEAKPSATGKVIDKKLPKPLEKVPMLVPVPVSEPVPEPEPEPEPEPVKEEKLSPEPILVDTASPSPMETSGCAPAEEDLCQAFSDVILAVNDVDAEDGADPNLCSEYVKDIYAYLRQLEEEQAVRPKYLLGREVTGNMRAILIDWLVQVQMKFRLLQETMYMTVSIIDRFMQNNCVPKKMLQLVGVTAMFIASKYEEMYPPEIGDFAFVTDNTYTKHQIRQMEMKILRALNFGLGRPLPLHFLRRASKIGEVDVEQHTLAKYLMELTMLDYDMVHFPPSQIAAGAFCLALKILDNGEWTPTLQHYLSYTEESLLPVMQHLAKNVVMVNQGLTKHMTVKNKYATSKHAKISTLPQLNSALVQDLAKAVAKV
# CDK4 = target: T3, CDK4 (Homo sapiens, UniProt P11802); experiment: in vitro kinase assay, […]-ATP ([…] ATP), retinoblastoma (C-term) substrate, SDS-PAGE autoradiography
# T3 construct: recombinant CDK4/Cyclin D1 (SignalChem); with Cyclin D1
# T3 sequence (P11802 2-303): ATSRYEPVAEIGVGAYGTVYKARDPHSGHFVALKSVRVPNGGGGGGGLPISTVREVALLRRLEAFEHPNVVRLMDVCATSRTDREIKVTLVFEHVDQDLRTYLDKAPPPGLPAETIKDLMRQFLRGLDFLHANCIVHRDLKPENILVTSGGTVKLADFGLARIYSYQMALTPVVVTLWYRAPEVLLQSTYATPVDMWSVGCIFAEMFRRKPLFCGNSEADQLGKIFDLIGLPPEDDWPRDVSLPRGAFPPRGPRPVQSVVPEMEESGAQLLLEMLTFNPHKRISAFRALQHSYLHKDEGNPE
# T3 sequence (P24385 whole entry partner): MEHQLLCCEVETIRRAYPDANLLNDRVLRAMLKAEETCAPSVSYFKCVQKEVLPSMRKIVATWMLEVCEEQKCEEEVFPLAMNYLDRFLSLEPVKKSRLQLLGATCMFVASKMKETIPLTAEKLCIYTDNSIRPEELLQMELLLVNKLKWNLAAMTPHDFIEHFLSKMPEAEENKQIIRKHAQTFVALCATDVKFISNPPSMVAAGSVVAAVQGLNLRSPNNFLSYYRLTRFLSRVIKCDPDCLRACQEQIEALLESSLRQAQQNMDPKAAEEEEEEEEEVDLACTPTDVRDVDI
compound,measurement,setting,value
"O=C(O)c1c(O)cc(O)cc1O [2,4,6-THBA, 2,4,6-trihydroxybenzoic acid]",IC50,CDK2,262 ± 29 µM
same,IC50,CDK1,580 ± 57 µM
same,IC50,CDK4,403 ± 63 µM
